Test results from PubChem BioAssay AID2060495 (Molecular Pharmacology Branch, DTP, NCI, 2025).
Values joined by “and” are separate entries in the source; they are usually repeats but may differ in a detail not shown here. Equal entries are not always repeated.

Tested on: 521955-158-R2-J5-PDC complex spheroid viability
Experiment: Anticancer human tumor 521955-158-R2-J5-PDC patient-derived pancreatic carcinoma cell line growth inhibition [GQUAD]
Details: for viability, T/C: stronger effect = lower value; for IC50: curve of compound
Source text: DNA G-quadruplex Stabilizer Agents in Combinations in Complex Spheroids
A high-throughput screen of multi-cell type tumor spheroids was designed to identify active combinations of DNA G-quadruplex stabilizer agents and targeted small molecules. Complex spheroids include a stromal component modeled by human endothelial cells (HUVEC) and fibroblasts modeled by human mesenchymal stem cells (MSCs). The concentration ranges selected for each drug and investigational agent were based upon clinically achievable concentrations if the clinical Cmax of the agent was known.
Compounds. The drugs and investigational agents: pidnarulex (CX-5461; NSC782164), APTO-253 (NSC789042), BRACO-19 (NSC847499), peposertib (NSC802822), ceralasertib (NSC780249), elimusertib (NSC800525), camonsertib (NSC841442), AZD-1390 (NSC803789), olaparib (NSC753686), talazoparib (NSC767125), ART-558 (NSC835418), sotorasib (NSC818433), MRTX-1133 (NSC836407), SN-38 (NSC673596), topotecan (NSC609699), etoposide (NSC141540), doxorubicin (NSC123127), gemcitabine (NSC613327), 5-fluorouracil (NSC19893), paclitaxel (NSC125973), vemurafenib (NSC761431), panobinostat (NSC761190), R-306465 (JNJ-16241199; NSC773264), adavosertib (NSC754352), TP-3654 (NSC805149), carboplatin (NSC241240), KSQ-4279 (NSC840948), and staurosporine (NSC755774) were obtained from the National Cancer Institute (NCI) Developmental Therapeutics Program Chemical Repository (34). The FDA-approved anticancer drug set is available from the NCI Developmental Therapeutics Program. […] The stock solutions were prepared in dimethyl sulfoxide (DMSO, Sigma-Aldrich, St. Louis, MO, cat. D2650) at 800-fold the tested concentration and stored at -70 degrees C prior to their use. All drugs and investigational agents were tested over a range starting from a high concentration at or near the clinical Cmax and decreasing in half-log increments. If the clinical Cmax for an agent had not been determined, the highest concentration tested was 10 microM.
2.3 Cell Culture. All cells were maintained in an incubator at 37 degrees C and 5% CO2 with 95% humidity. The PDC lines were cultured according to standard operating procedures established by the NCI PDMR. All PDCs were thawed and cultured in Matrigel-coated flasks prepared with a working solution of 1X Ham's F-12 nutrient mix, without supplementation (Invitrogen, cat. 11765054), 100 U/mL penicillin-streptomycin (Invitrogen, cat. 15140122), and 2.5% Matrigel (Corning Inc., cat. 354248) for the first three passages. The 857933-349-R-J2-PDC line was cultured in 6C/Colon 1B media, which includes advanced DMEM/F-12 (Thermo Fisher Scientific, cat. 12634028), 10 mM HEPES (Thermo Fisher Scientific, cat. 15630080), 1X GlutaMAX supplement (Thermo Fisher Scientific, cat. 35050061), 0.1 mg/mL primocin (InvivoGen, cat. ant-pm-2), 10% defined fetal bovine serum, heat inactivated (HyClone Laboratories Inc., cat. SH30070.03HI), 50% L-WRN conditioned media (ATCC, cat. CRL-3276), 1.25 mM N-Acetyl-L-cysteine (Sigma-Aldrich, cat. A9165), 10 mM nicotinamide (Sigma-Aldrich, cat. N0636), 1X B-27 supplement (Thermo Fisher Scientific, cat. 17504044), 1X N-2 supplement (Thermo Fisher Scientific, cat. 17502048), 10 microM Y-27632 dihydrochloride (Tocris Bioscience, cat. 1254), and 50 ng/mL human EGF recombinant protein (Thermo Fisher Scientific, cat. PHG0311). The 485176-168-R4-J1-PDC line was cultured in Panc media, which includes all 6C/Colon 1B media components plus 100 ng/mL human FGF-10 (Thermo Fisher Scientific, cat. 100-26), 500 nM SB-431542 (Selleckchem, cat. S1067), and gastrin (Tocris, cat. 3006).
[…]
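Further: spheroids exposed to agents for one week before reading.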
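Wherever viability, T/C is given: 100% = DMSO vehicle control viability.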

| Structure (SMILES) | IC50 | viability, T/C (compound 0.000999 µM) | viability, T/C (compound 0.00316 µM) | viability, T/C (compound 0.00999 µM) | viability, T/C (compound 0.0316 µM) | viability, T/C (compound 0.0999 µM) | viability, T/C (compound 0.316 µM) | viability, T/C (compound 0.1 µM) | viability, T/C (compound 1 µM) | viability, T/C (compound 3.16 µM) | viability, T/C (compound 10 µM) |
| --- | --- | --- | --- | --- | --- | --- | --- | --- | --- | --- | --- |
| CCc1c2c(nc3ccc(O)cc13)-c1cc3c(c(=O)n1C2)COC(=O)[C@]3(O)CC | 0.00151 µM and 0.00259 µM and 0.00171 µM | 71% and 85.3% and 74.8% | 12.1% and 39.8% and 21.3% | 7.66% and 28.1% and 9.19% | 6.38% and 17.9% and 8.13% | 5.13% and 11.7% and 5.42% | 3% and 10.7% and 2.39% | – | – | – | – |
| O=C(c1cc(Cc2n[nH]c(=O)c3ccccc23)ccc1F)N1CCN(C(=O)C2CC2)CC1 | > 10 µM | – | – | – | 96.2% and 106% and 90.6% | – | 85.3% and 86.5% and 89.5% | 93.6% and 88.4% and 70.8% | 65.6% and 88% and 66.8% | 89.8% and 92.1% and 83.6% | 91.2% and 81.6% and 80.2% |
| CC[C@@]1(O)C(=O)OCc2c1cc1n(c2=O)Cc2cc3c(CN(C)C)c(O)ccc3nc2-1 | 0.0669 µM and 0.0932 µM and 0.0766 µM | 109% and 110% and 79.9% | 84.8% and 101% and 96.6% | 96.3% and 112% and 92.2% | 86.6% and 79.7% and 91.3% | 30.5% and 50.2% and 38% | 8.07% and 27.5% and 13.2% | – | – | – | – |
| COc1cc(C2c3cc4c(cc3C(OC3OC5COC(C)OC5C(O)C3O)C3COC(=O)C23)OCO4)cc(OC)c1O (stereo not drawn) | 0.616 µM and 0.427 µM and 1.25 µM | – | – | – | 95.5% and 105% and 91.1% | – | 79.4% and 67% and 81.2% | 66.3% and 70.6% and 95% | 29% and 29.6% and 53.9% | 14.7% and 15.7% and 30.7% | 10.9% and 9.42% and 17.9% |
| COc1cccc2c1C(=O)c1c(O)c3c(c(O)c1C2=O)CC(O)(C(=O)CO)CC3OC1CC(N)C(O)C(C)O1 (stereo not drawn) | 0.145 µM and 0.254 µM and 0.0967 µM | – | – | – | 97.9% and 93.8% and 88.4% | – | 34.3% and 31.6% and 30.2% | 57.4% and 74.5% and 45% | 13.4% and 43% and 12.5% | 4.07% and 4.69% and 3.22% | 1.01% and 2.64% and 0.42% |

The next lines start with results.

| IC50 | Structure (SMILES) | viability, T/C (compound 0.000999 µM) | viability, T/C (compound 0.00316 µM) | viability, T/C (compound 0.00999 µM) | viability, T/C (compound 0.0316 µM) | viability, T/C (compound 0.0999 µM) | viability, T/C (compound 0.316 µM) | viability, T/C (compound 0.1 µM) | viability, T/C (compound 1 µM) | viability, T/C (compound 3.16 µM) | viability, T/C (compound 10 µM) |
| --- | --- | --- | --- | --- | --- | --- | --- | --- | --- | --- | --- |
| > 10 µM | CC(C)n1c(=O)n(C)c2cnc3cc(F)c(-c4ccc(OCCCN5CCCCC5)nc4)cc3c21 | – | – | – | 115% (2×) and 100% | – | 114% (2×) and 80.2% | 96.9% and 107% and 94.7% | 91.4% and 95.4% and 89.3% | 96.3% and 107% and 96.1% | 95.6% and 95.5% and 84.2% |
| 2.81 µM and 6.67 µM and 2.89 µM | COc1ccc([C@@H](O)c2cc(-c3ncnc4cc(N5CCOCC5)ccc34)c(F)cc2Cl)nn1 | – | – | – | 88.1% and 109% and 104% | – | 83.3% and 97% and 86.6% | 87% and 96.8% and 88.3% | 63.6% and 77.3% and 58.9% | 50.2% and 64.8% and 50.8% | 38% and 42.1% and 40.9% |
| 0.181 µM and 0.167 µM and 0.145 µM | C=CCn1c(=O)c2cnc(Nc3ccc(N4CCN(C)CC4)cc3)nc2n1-c1cccc(C(C)(C)O)n1 | – | – | – | 101% and 115% and 102% | – | 30.4% and 29.3% and 16% | 70.8% and 67% and 66.1% | 17.9% and 15.7% and 7.78% | 12.2% and 13.9% and 7.48% | 16.8% and 14.4% and 6.61% |
| > 10 µM | C=CC(=O)N1CCN(c2nc(=O)n(-c3c(C)ccnc3C(C)C)c3nc(-c4c(O)cccc4F)c(F)cc23)C(C)C1 (stereo not drawn) | – | – | – | 86.9% and 107% and 102% | – | 84.9% and 115% and 119% | 95.5% and 94.6% and 97.9% | 110% and 98.3% and 102% | 109% and 115% and 123% | 91% and 91.9% and 80.9% |
